Assay results from patent publication US8981094B2, “Piperidine/piperazine derivatives” (Janssen Pharmaceutica N.V., priority 2007, dated 2015).

What was measured:
human DGAT1 = biological target: T1, human DGAT1 (Homo sapiens, UniProt O75907); test: Inhibition of DGAT1 activity, FlashPlate assay with DGAT1 membrane preparations and substrate micelles; type: biochemical; settings: pIC50 = -logIC50, IC50 values expressed in M
T1 construct: FLAG (N); made in house; host or cells: SF9 insect cells (pFastBac baculovirus); total cell membranes
T1 sequence (O75907 1-488): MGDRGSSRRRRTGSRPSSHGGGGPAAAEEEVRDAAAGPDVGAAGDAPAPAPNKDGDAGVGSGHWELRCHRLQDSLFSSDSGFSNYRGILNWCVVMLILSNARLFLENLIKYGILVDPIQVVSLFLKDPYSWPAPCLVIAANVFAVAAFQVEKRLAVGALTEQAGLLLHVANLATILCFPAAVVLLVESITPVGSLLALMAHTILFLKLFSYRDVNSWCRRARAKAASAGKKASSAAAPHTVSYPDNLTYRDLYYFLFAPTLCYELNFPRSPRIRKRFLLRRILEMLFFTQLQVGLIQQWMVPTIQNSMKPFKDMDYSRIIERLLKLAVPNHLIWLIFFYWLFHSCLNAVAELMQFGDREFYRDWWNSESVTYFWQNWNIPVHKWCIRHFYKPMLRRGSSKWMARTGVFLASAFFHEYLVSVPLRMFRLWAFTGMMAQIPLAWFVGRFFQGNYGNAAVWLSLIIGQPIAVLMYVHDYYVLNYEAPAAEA
Method in brief: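 FLAG-tagged human DGAT1 membranes (expressed in Sf9 cells) were incubated 120 min at 37° C. in 50 mM Tris-HCl pH 7.4 with 150 mM MgCl2, 1 mM EDTA, 0.2% BSA, 50 μM DAG micelles (PC/PS) and 8.4 μM [^3H]-oleoylCoA. The reaction was stopped with N-ethylmaleimide and read as FlashPlate radioluminescence. Responses were normalized to enzyme/no-enzyme controls to fit dose-response curves.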

GLP-1 plasma levels = test: In vivo study for effect of test compound on GLP-1 plasma levels (postprandial profile); settings: dogs fasted 22 hours, liquid meal 18% fat, compound given orally with the meal; compared with own profile without compound; compound 223 at 0.3 mg/kg in FIG. 1
Method: B) In Vivo Study for Effect of Test Compound on GLP-1 Plasma Levels
Elevation of GLP-1 plasma levels by a DGAT inhibitor was studied as follows:
Dogs were deprived from food for a period of 22 hours. At time 0, animals were given a liquid meal, containing 18% fat (w/w), by gavage with a stomach tube. The test compound was given orally together with the meal. Afterwards, a postprandial plasma profile was determined for GLP-1. Therefore, blood was collected at predetermined time intervals in ice-cooled Vacutainers EDTA-plasma tubes and GLP-1 levels were measured in the samples taken at 0 hour (just before the meal) and at 0.5, 1, 2, 4, 6, 8 and 24 hours after dosing. Six dogs (3 males and 3 females) were included per dosage group and the plasma GLP-1 profile was compared with their own GLP-1 profile previously determined in the same conditions but without administration of the test compound.
GLP-1 determinations in plasma were performed with a Glucagon-like peptide-1 (active) ELISA kit 96-well plate of LINCO Research.

| IC50 (human DGAT1) [nM] | melting point [°C] | Compound | GLP-1 plasma levels (postprandial plasma profile) (GLP-1 plasma levels) |
| --- | --- | --- | --- |
| 15.8 | 180.7 | CNC(C)c1cc(Cl)c(NC(=O)N2CCN(c3ccc(NC(=O)CCCc4ccccc4)cc3)CC2)c(Cl)c1 (stereo not shown) [Compound 24] | increase GLP-1 levels |
| 4.47 | 175.4 | O=C(CCCc1ccccc1)Nc1ccc(N2CCN(C(=O)Nc3c(Cl)cc(O)cc3Cl)CC2)cc1 [Compound 30] | increase GLP-1 levels |
| 50.1 | 244.09 | Cc1ccccc1CNC(=O)c1ccc(N2CCN(C(=O)Cc3c(Cl)cccc3Cl)CC2)cc1 [Compound 233] | – |
| 50.1 | 251.1 | O=C(NCc1cccc(N2CCCC2)c1)c1ccc(N2CCN(C(=O)Cc3c(Cl)cccc3Cl)CC2)cc1 [Compound 234] | – |
| 60.3 | 217.37 | O=C(NCc1ccc(-c2ccccn2)cc1)c1ccc(N2CCN(C(=O)Nc3c(Cl)cc(CN4CCCC4)cc3Cl)CC2)cc1 [Compound 236] | – |
| 81.3 | 208.87 | COc1ccc(CNC(=O)c2ccc(N3CCN(C(=O)Nc4c(Cl)cc(CN(C(C)C)C(C)C)cc4Cl)CC3)cc2)cc1 [Compound 240] | – |
| 129 | 172.73 | Cc1cc(Cl)c(CC(=O)N2CCN(c3ccc(C(=O)NCc4cccc(N5CCCC5)c4)cc3)CC2)c(Cl)n1 [Compound 242] | – |
| 151 | 235 to 237 | COc1ccc(CCNC(=O)c2ccc(N3CCN(C(=O)Nc4c(Cl)cc(CN5CCCC5)cc4Cl)CC3)cc2F)cc1 [Compound 246] | – |
| 191 | 239.51 | O=C(NCc1ccncc1)c1ccc(N2CCN(C(=O)Cc3c(Cl)cccc3Cl)CC2)cc1 [Compound 251] | – |
| 339 | 176.5 to 178 | COc1ccc(CNC(=O)c2ccc(N3CCN(C(=O)Nc4c(Cl)cc(CN5CCCC5)cc4Cl)CC3)cc2F)cc1 [Compound 255] | – |
| 661 | 242.27 | O=C(NCc1cccnc1)c1ccc(N2CCN(C(=O)Cc3c(Cl)cccc3Cl)CC2)cc1 [Compound 257] | – |
| 759 | 238.35 | O=C(NCc1ccco1)c1ccc(N2CCN(C(=O)Cc3c(Cl)cccc3Cl)CC2)cc1 [Compound 258] | – |
| 1350 | 247.07 | C#CCNC(=O)c1ccc(N2CCN(C(=O)Cc3c(Cl)cccc3Cl)CC2)cc1 [Compound 259] | – |
| 3240 | 175.07 | CCOCCNC(=O)c1ccc(N2CCN(C(=O)Cc3c(Cl)cccc3Cl)CC2)cc1 [Compound 262] | – |
| 3720 | 132.84 | COc1ccc(CN(C)C(=O)c2ccc(N3CCN(C(=O)Nc4c(Cl)cc(CN5CCCC5)cc4Cl)CC3)cc2)cc1 [Compound 263] | – |
| 3980 | 223.77 | O=C(NCC1CCOCC1)c1ccc(N2CCN(C(=O)Nc3c(Cl)cc(CN4CCCC4)cc3Cl)CC2)cc1 [Compound 264] | – |
| 6170 | 161.47 | CN(Cc1ccccc1)C(=O)c1ccc(N2CCN(C(=O)Nc3c(Cl)cc(CN4CCCC4)cc3Cl)CC2)cc1 [Compound 266] | – |
| 1.7 | 224.69 | COc1ccc(CC(=O)Nc2ccc(N3CCN(C(=O)Nc4c(Cl)cc(CN5CCN(S(C)(=O)=O)CC5)cc4Cl)CC3)cc2)cc1 [Compound 268] | – |
| 3.72 | 203 to 204 | CC(O)c1cc(Cl)c(NC(=O)N2CCC(c3ccc(NC(=O)CCCc4ccccc4)cc3)CC2)c(Cl)c1 (stereo not shown) [Compound 273] | – |
| 4.27 | 198 to 199 | O=C(CCCc1ccccc1)Nc1ccc(C2CCN(C(=O)Nc3c(Cl)cc(CO)cc3Cl)CC2)cc1 [Compound 276] | – |
| 6.76 | 227 to 228 | Cc1ccc(NCCC(=O)Nc2ccc(N3CCN(C(=O)Nc4c(Cl)cc(O)cc4Cl)CC3)cc2)c(C)c1 [Compound 280] | – |

| IC50 (human DGAT1) [nM] | melting point [°C] | Compound | GLP-1 plasma levels (postprandial plasma profile) (GLP-1 plasma levels) |
| --- | --- | --- | --- |
| 7.24 | 149 to 150 | C=CCN(CC(=O)Nc1ccc(N2CCN(C(=O)Nc3c(Cl)cc(OC)cc3Cl)CC2)cc1)Cc1ccc(C)cc1C [Compound 281] | – |
| 9.12 | 178 to 179 | COc1ccc(COC(=O)CCCC(=O)Nc2ccc(N3CCN(C(=O)Nc4c(Cl)cc(CN5CCCCC5)cc4Cl)CC3)cc2)cc1 [Compound 285] | – |
| 10 | 191.86 | CC(c1cc(Cl)c(NC(=O)N2CCN(c3ccc(NC(=O)CCCc4ccccc4)cc3)CC2)c(Cl)c1)N(C)C (stereo not shown) [Compound 288] | – |
| 10.2 | 244 to 245 | O=C(CCNc1ccccc1Cl)Nc1ccc(N2CCN(C(=O)Nc3c(Cl)cccc3Cl)CC2)cc1 [Compound 289] | – |
| 10.7 | 180 to 181 | O=C(CCCC(=O)OCc1ccccc1)Nc1ccc(N2CCN(C(=O)Nc3c(Cl)cc(CN4CCCCC4)cc3Cl)CC2)cc1 [Compound 292] | – |
| 17.4 | 241 to 242 | Cc1ccc(NCCC(=O)Nc2ccc(N3CCN(C(=O)Nc4c(Cl)cccc4Cl)CC3)cc2)c(C)c1 [Compound 298] | – |
| 19.1 | 168.24 | COc1ccc(CC(=O)Nc2ccc(N3CCN(C(=O)Nc4c(Cl)cc(C[N+]5([O-])CCCC5)cc4Cl)CC3)cc2)cc1 [Compound 299] | – |
| 20.9 | 152 to 153 | O=C(CCCc1ccccc1)Nc1ccc(C2CCN(C(=O)Nc3c(Cl)cc(C(=O)O)cc3Cl)CC2)cc1 [Compound 301] | – |
| 21.9 | 243.74 | O=C(COC(=O)c1ccccc1)Nc1ccc(N2CCN(C(=O)Nc3c(Cl)cc(CN4CCCC4)cc3Cl)CC2)cc1 [Compound 304] | – |
| 24.5 | 253.39 | COc1ccc(CC(=O)Nc2ccc(N3CCN(C(=O)Nc4c(Cl)cc(C(=O)N5CCN(C)CC5)cc4Cl)CC3)cc2)cc1 [Compound 305] | – |
| 29.5 | 206.22 | O=C(CC(=O)OCc1ccccc1)Nc1ccc(N2CCN(C(=O)Nc3c(Cl)cc(CN4CCCC4)cc3Cl)CC2)cc1 [Compound 307] | – |
| 43.7 | 212 to 213 | Cc1ccc(CNCC(=O)Nc2ccc(N3CCN(C(=O)Nc4c(Cl)cc(O)cc4Cl)CC3)cc2)c(C)c1 [Compound 311] | – |
| 63.1 | 248.28 | COc1ccc(CC(=O)Nc2ccc(N3CCN(C(=O)Nc4c(Cl)cc(CC[N+](C)(C)C)cc4Cl)CC3)cc2)cc1 [Compound 317] | – |
| 64.6 | 211 to 212 | CCOC(=O)CCCC(=O)Nc1ccc(N2CCN(C(=O)Nc3c(Cl)cc(CN4CCCCC4)cc3Cl)CC2)cc1 [Compound 318] | – |
| 66.1 | 160 to 161 | CC(=O)c1cc(Cl)c(NC(=O)N2CCC(c3ccc(NC(=O)CCCc4ccccc4)cc3)CC2)c(Cl)c1 [Compound 319] | – |
| 91.2 | 208.65 | CCOC(=O)CCCC(=O)Nc1ccc(N2CCN(C(=O)Nc3c(Cl)cc(CN4CCCC4)cc3Cl)CC2)cc1 [Compound 322] | – |
| 107 | 204 to 205 | COC(=O)c1cc(Cl)c(NC(=O)N2CCC(c3ccc(NC(=O)CCCc4ccccc4)cc3)CC2)c(Cl)c1 [Compound 324] | – |
| 355 | 200.57 | O=C(CCC(O)c1ccccc1)Nc1ccc(N2CCN(C(=O)Cc3c(Cl)cccc3Cl)CC2)cc1 (stereo not shown) [Compound 333] | – |
| 479 | 179.55 | CC(O)c1cc(Cl)c(NC(=O)N2CCN(c3ccc(N(C)C(=O)CCCc4ccccc4)cc3)CC2)c(Cl)c1 (stereo not shown) [Compound 335] | – |
| 2570 | 146.12 | O=C(CCCc1ccccc1)Nc1ccc(N2CCN(C(=O)Cc3ccccc3)CC2)cc1 [Compound 338] | – |
| 3090 | 219.91 | O=C(CCCc1ccccc1)Nc1ccc(N2CCN(C(=O)Nc3ccccc3)CC2)cc1 [Compound 339] | – |

| Compound | IC50 (human DGAT1) [nM] | melting point [°C] | GLP-1 plasma levels (postprandial plasma profile) (GLP-1 plasma levels) |
| --- | --- | --- | --- |
| COc1ccc(CC(=O)Nc2ccc(N3CCN(C(=O)Oc4c(Cl)cc(CN(C)C)cc4Cl)CC3)cc2)cc1 [Compound 312] | 44.7 | 182.46 | – |
